Data on 5 compounds can be found in US8703179B2, “Mucosal formulation” (Kimberly-Clark Worldwide, Inc., priority 2006, dated 2014).

≈ marks a conversion by molar mass, not a printed value. Read-outs that look alike come from different tables or passages of the source.

Holding throughout (assay type): cell-based
Test [1] concerns Candida albicans. The experiment in a line: Growth inhibition (minimum inhibitory concentration, gross turbidity). As to conditions: read-out: Minimum Inhibitory Concentration C. albicans. The procedure:
(§1) The ability of the phosphocholine derivatives of Examples 1-2 to inhibit growth of Candida albicans, Staphylococcus aureus, Lactobacillus acidophilus, and Gardnerella vaginale was tested. Each phosphocholine derivative (at concentrations ranging from 0 to 500 micrograms per milliliter) was dissolved into a broth media and 6 wt. % ethanol. Thereafter, 0.1 milliliter of each solution was inoculated in 1.0 milliliter of a growth media containing the microorganism of interest. The growth media was TSB media for Candida albicans and Staphylococcus aureus, MRS broth for Lactobacillus acidophilus, and NYC-3 broth enriched proteose peptone for Gardnerella vaginale. The concentration of the microorganism in the growth media was 10^4 colony forming units (“CFU”) per milliliter.
(§2) Thereafter, the gross turbidity of the media was monitored at 24, 48, and 72 hours time intervals. Gross turbidity is an indicative of growth inhibition and is determined using visual determination or a spectrophotometer. The concentration of the phosphocholine derivative at which no turbidity is detected is designated as the “minimum inhibitory concentration.” Phosphocholine derivatives having lower minimum inhibitory concentrations are generally considered to have better antimicrobial efficacy.

Test [2] deals with Gardnerella vaginale. Described as above. Particulars: read-out: Minimum Inhibitory Concentration G. vaginale. The procedure: as §1, §2
The subject of test [3] is Lactobacillus acidophilus. Described as above. Particulars: read-out: Minimum Inhibitory Concentration L. acidophilus. The procedure: as §1, §2
Test [4] has as its system Staphylococcus aureus. The test is described as above. As to conditions: read-out: Minimum Inhibitory Concentration S. aureus. On the procedure: as §1, §2
In test [5] the test system is Candida albicans (C. albicans). Kind of test: Time-dependent inhibition (organism count). The source says: (§3) Hexadecyl phosphocholine (“BRB-1”) was studied for inhibition of Candida albicans (C. albicans), Staphylococcus aureus (S. aureus), and lactobacilli. The results are shown below in Tables 3-4. Tetradecyl phosphocholine (“BRB-3”) was also studied for inhibition of C. albicans aureus, and lactobaccili.

Test [6] deals with L. acidophilus (lactobacilli). Kind of test: Time-dependent inhibition (organism count). Particulars: for Organism Count / Percent Reduction: L. acidophilus.
Text: as §3

Test [7] relates to Staphylococcus aureus (S. aureus). The experiment in a line: Time-dependent inhibition (organism count).
Text: as §3

The mark [8] stands for this setting: TSB media, 10^4 CFU/ml, turbidity at 24, 48, 72 hours.
The mark [9] stands for this setting: NYC-3 broth, 10^4 CFU/ml, turbidity at 24, 48, 72 hours.
Where [10] appears, read: MRS broth, 10^4 CFU/ml, turbidity at 24, 48, 72 hours.

With `CCCCCCCCCCCCCCOP(=O)([O-])OCC[N+](C)(C)C`, the MIC in test [1] (setting [8]) was determined as 62.5 mg/L (≈ 165 µM); in test [2] (setting [9]), 250 mg/L (≈ 659 µM); in test [3] (setting [10]), 250 mg/L (≈ 659 µM); in test [4] (setting [8]) it was 250 mg/L (≈ 659 µM).

For the compound `CCCCCCCCCCCCCCCCOP([O-])(=S)OCC[N+](C)(C)C` (stereo not shown), the MIC in test [1] (72 h), in test [2] (72 h), in test [3] (72 h) and in test [4] (72 h) was 31.2 mg/L (≈ 73.8 µM) each time.

Regarding `CCCCCCCCCCCCCCCCOCC(O)COP(=O)([O-])OCC[N+](C)(C)C` (racemic), the MIC in test [1] (setting [8]) was 125 mg/L (≈ 260 µM); in test [2] (setting [9]), 250 mg/L (≈ 519 µM); in test [3] (setting [10]), 250 mg/L (≈ 519 µM); in test [4] (setting [8]), 250 mg/L (≈ 519 µM).

In the case of `CCCCCCCCCCCCCCCCOP(=O)([O-])OCC[N+](C)(C)C` [BRB-1, hexadecyl phosphocholine], the MIC amounted to 15.6 mg/L (≈ 38.3 µM) in test [1] (setting [8]), 31.2 mg/L (≈ 76.7 µM) in test [2] (setting [9]), 125 mg/L (≈ 307 µM) in test [3] (setting [10]) and 125 mg/L (≈ 307 µM) in test [4] (setting [8]). The “Organism Count” value in test [5] (10 μg/ml, 0 Hour) was 8.4 × 10^5 CFU/ml; in test [5] (10 μg/ml, 1 Hour), 2.3 × 10^5 CFU/ml; in test [5] (10 μg/ml, 2 Hours), 2.1 × 10^3 CFU/ml; in test [5] (10 μg/ml, 4 Hours), 50 CFU/ml; in test [5] (100 μg/ml, 0 Hour) it was 2.9 × 10^5 CFU/ml; in test [5] (100 μg/ml, 1 Hour) it was 1.2 × 10^5 CFU/ml. The “Organism Count” value is recorded as 8.0 × 10^2 CFU/ml in test [5] (100 μg/ml, 2 Hours); 3.8 × 10^2 CFU/ml in test [5] (100 μg/ml, 4 Hours); 7.0 × 10^4 CFU/ml in test [6] (1 μg/ml, 0 Hour); 8.6 × 10^4 CFU/ml in test [6] (1 μg/ml, 1 Hour); 7.6 × 10^4 CFU/ml in test [6] (1 μg/ml, 2 Hours); 6.7 × 10^4 CFU/ml in test [6] (1 μg/ml, 4 Hours). For the same compound, the “Organism Count” value is listed as 1.8 × 10^5 CFU/ml in test [6] (10 μg/ml, 0 Hour); 20 CFU/ml in test [6] (10 μg/ml, 1 Hour); 1.5 × 10^5 CFU/ml in test [6] (100 μg/ml, 0 Hour); 70 CFU/ml in test [6] (100 μg/ml, 1 Hour); 5.3 × 10^4 CFU/ml in test [7] (10 μg/ml, 0 Hour); 7.3 × 10^2 CFU/ml in test [7] (10 μg/ml, 1 Hour). In addition, the “Organism Count” value was 60 CFU/ml in test [7] (10 μg/ml, 2 Hours); 4.8 × 10^4 CFU/ml in test [7] (100 μg/ml, 0 Hour); 1.4 × 10^2 CFU/ml in test [7] (100 μg/ml, 1 Hour); 20 CFU/ml in test [7] (100 μg/ml, 2 Hours). In addition, the “% Reduction” value in test [5] (10 μg/ml, 1 Hour) is 68.0%; in test [5] (10 μg/ml, 2 Hours), 99.7%; in test [5] (10 μg/ml, 4 Hours), 99.99%; in test [5] (100 μg/ml, 0 Hour), 27.5%; in test [5] (100 μg/ml, 1 Hour), 70.0%; in test [5] (100 μg/ml, 2 Hours), 99.8%. In addition, the “% Reduction” value in test [5] (100 μg/ml, 4 Hours) is reported as 99.9%; in test [7] (10 μg/ml, 0 Hour), 18.5%; in test [7] (10 μg/ml, 1 Hour) it was 98.9%; in test [7] (10 μg/ml, 2 Hours), 99.91%; in test [7] (10 μg/ml, 4 Hours), 99.98%; in test [7] (100 μg/ml, 0 Hour), 39.2%. Besides, the “% Reduction” value is recorded as 99.8% in test [7] (100 μg/ml, 1 Hour); 99.97% in test [7] (100 μg/ml, 2 Hours); 99.99% in test [7] (100 μg/ml, 4 Hours). The “Percent Reduction” value in test [6] (1 μg/ml, 0 Hour) amounted to 6.7%; in test [6] (1 μg/ml, 4 Hours), 10.7%; in test [6] (10 μg/ml, 0 Hour), 18.2%; in test [6] (10 μg/ml, 1 Hour) it was 99.99%; in test [6] (10 μg/ml, 6 Hours), 99.99%; in test [6] (100 μg/ml, 0 Hour), 31.8%. Further, the “Percent Reduction” value in test [6] (100 μg/ml, 1 Hour) was 99.97%; in test [6] (100 μg/ml, 6 Hours), 99.99%.

tetradecyl phosphocholine [BRB-3]: the “% Reduction” value amounted to 2.7% in test [5] (10 μg/ml, 0 Hour); 20.5% in test [5] (10 μg/ml, 1 Hour); 30.1% in test [5] (10 μg/ml, 2 Hours); 52.0% in test [5] (10 μg/ml, 4 Hours); 26.0% in test [5] (100 μg/ml, 0 Hour); 43.0% in test [5] (100 μg/ml, 1 Hour). The “% Reduction” value in test [5] (100 μg/ml, 2 Hours) worked out at 51.0%; in test [5] (100 μg/ml, 4 Hours), 46.0%; in test [7] (10 μg/ml, 1 Hour), 18.3%; in test [7] (10 μg/ml, 2 Hours), 25.8%; in test [7] (10 μg/ml, 4 Hours), 38.3%; in test [7] (100 μg/ml, 0 Hour), 7.1%. Moreover, the “% Reduction” value in test [7] (100 μg/ml, 1 Hour) came to 97.9%; in test [7] (100 μg/ml, 2 Hours) it was 99.9%; in test [7] (100 μg/ml, 4 Hours), 99.99%. For the same compound, the “Organism Count” value in test [5] (10 μg/ml, 0 Hour) was 7.1 × 10^4 CFU/ml; in test [5] (10 μg/ml, 1 Hour), 5.8 × 10^4 CFU/ml; in test [5] (10 μg/ml, 2 Hours), 5.1 × 10^4 CFU/ml; in test [5] (10 μg/ml, 4 Hours), 3.5 × 10^4 CFU/ml; in test [5] (100 μg/ml, 0 Hour) it was 7.4 × 10^4 CFU/ml; in test [5] (100 μg/ml, 1 Hour), 5.7 × 10^4 CFU/ml. Also, the “Organism Count” value in test [5] (100 μg/ml, 2 Hours) is on record as 4.9 × 10^4 CFU/ml; in test [5] (100 μg/ml, 4 Hours), 5.4 × 10^4 CFU/ml; in test [6] (10 μg/ml, 0 Hour), 3.1 × 10^5 CFU/ml; in test [6] (10 μg/ml, 1 Hour), 2.9 × 10^5 CFU/ml; in test [6] (10 μg/ml, 2 Hours), 2.4 × 10^5 CFU/ml; in test [6] (10 μg/ml, 4 Hours) it was 2.3 × 10^5 CFU/ml. The “Organism Count” value in test [6] (100 μg/ml, 0 Hour) is listed as 4.5 × 10^5 CFU/ml; in test [7] (10 μg/ml, 0 Hour), 1.4 × 10^5 CFU/ml; in test [7] (10 μg/ml, 1 Hour) it was 9.8 × 10^4 CFU/ml; in test [7] (10 μg/ml, 2 Hours), 8.9 × 10^4 CFU/ml; in test [7] (10 μg/ml, 4 Hours), 7.4 × 10^4 CFU/ml; in test [7] (100 μg/ml, 0 Hour), 1.3 × 10^5 CFU/ml. Further, the “Organism Count” value in test [7] (100 μg/ml, 1 Hour) was 2.9 × 10^3 CFU/ml; in test [7] (100 μg/ml, 2 Hours), 1.1 × 10^2 CFU/ml. Also, the “Percent Reduction” value in test [6] (10 μg/ml, 0 Hour) is 16.2%; in test [6] (10 μg/ml, 1 Hour), 21.6%; in test [6] (10 μg/ml, 2 Hours) it was 35.1%; in test [6] (10 μg/ml, 4 Hours) it was 37.8%; in test [6] (100 μg/ml, 0 Hour), 88.5%; in test [6] (100 μg/ml, 1 Hour), 99.99%. The “Inhibition of lactobacilli (in words)” value in test [6] (Tables 4 and 5, ascribed to organism instability in the media and the protocol) was “some inhibtion”.
